From US12195427B2, “MASP-2 inhibitors and methods of use” (priority 2018, dated 2025)
Counter-ions that a name gives are not always drawn.

Target: MASP-2 CCP2-SP (Homo sapiens (Human), UniProt O00187)
Assay: MASP-2 co-crystallization, X-ray crystallography and structure analysis (H-bonds, van der Waals contacts);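 for Ligand-pharmacophore element distance, pharmacophore element C2: distance from averaged pharmacophore element to bound ligand; missing value means element absent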;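 for Ligand-pharmacophore element distance, pharmacophore element C3: distance from averaged pharmacophore element to bound ligand; missing value means element absent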;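 for Ligand-pharmacophore element distance, pharmacophore element C4: distance from averaged pharmacophore element to bound ligand; missing value means element absent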;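 for Ligand-pharmacophore element distance, pharmacophore element C5: distance from averaged pharmacophore element to bound ligand; missing value means element absent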
Set-up: van der Waals contact distance, MASP-2 HIS 483 atom CD2 / van der Waals contact distance, MASP-2 HIS 483 atom NE2 / van der Waals contact distance, SER 654 C to compound atom / van der Waals contact distance, SER 654 O to compound atom / van der Waals contact distance, TRP 655 C to compound atom / van der Waals contact distance, MASP-2 GLY 528 atom CA / van der Waals contact distance TRP 655 atom CZ3 / van der Waals contact distance TRP 655 atom N / van der Waals contact distance TRP 655 atom CE3 / van der Waals contact distance GLY 656 atom C / van der Waals contact distance GLY 656 atom CA / van der Waals contact distance GLY 656 atom O / van der Waals contact distance, MASP-2 TYR 607 atom CD1 / van der Waals contact distance, MASP-2 PRO 606 atom O / d(C3,CA1) / d(CA1,N1)2 / d(H4,O1) / d(H4,O2) / d(O1,O2) / d(CA1,O2) / d(CA6,O1) / d(CA6,O2) / d(CA1,C5) / d(O2,H3) / d(N2,C2) / d(CA5,N2) / d(N2,C4) / d(N2,C6) / d(N2,CA3) / d(N2,O3) / d(O4,H2): unit not given beside the values
Details: for Ligand-pharmacophore element distance, pharmacophore element C2 / Ligand-pharmacophore element distance, pharmacophore element C3 / Ligand-pharmacophore element distance, pharmacophore element C4 / Ligand-pharmacophore element distance, pharmacophore element C5 / Ligand-pharmacophore element distance, pharmacophore element C6 / Ligand-pharmacophore element distance, pharmacophore element C7 / Ligand-pharmacophore element distance, pharmacophore element CA1 / Ligand-pharmacophore element distance, pharmacophore element CA2 / Ligand-pharmacophore element distance, pharmacophore element CA3 / Ligand-pharmacophore element distance, pharmacophore element CA4 / Ligand-pharmacophore element distance, pharmacophore element CA5 / Ligand-pharmacophore element distance, pharmacophore element CA6: Table A4-1
Method in brief: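 First, CCP2-SP constructs with or without a 6His tag are produced in E. coli. Crystals are then soaked once or twice with inhibitor, cryoprotected in 20% glycerol or frozen directly, and diffracted at synchrotron beamlines. Phasing uses molecular replacement with parts of 1Q3X.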

[1] = Table A5-1 pharmacophore: distance between elements, S2/S1 region
[2] = Table A5-2 pharmacophore distance, S3/S4 region
[3] = Table A7-1, between pharmacophore elements of the bound compound
[4] = Table A7-2, between pharmacophore elements of the bound compound
[5] = Table A8-6, nearest protein atom in cell to the left

Sequence of MASP-2 CCP2-SP (O00187 445-686): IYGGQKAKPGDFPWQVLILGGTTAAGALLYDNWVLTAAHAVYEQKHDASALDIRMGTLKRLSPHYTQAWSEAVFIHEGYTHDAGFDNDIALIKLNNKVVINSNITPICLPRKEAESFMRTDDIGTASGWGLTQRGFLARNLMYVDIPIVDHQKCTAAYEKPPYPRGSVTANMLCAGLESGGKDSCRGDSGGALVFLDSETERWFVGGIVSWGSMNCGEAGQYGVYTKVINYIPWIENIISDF
Sequence of MASP-2 CCP2-SP (O00187 364-432 partner): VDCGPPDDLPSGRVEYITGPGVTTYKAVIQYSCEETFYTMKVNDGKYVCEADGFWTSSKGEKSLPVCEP

Cc1cccc([C@H]2CN[C@@H](C(=O)N[C@@H](C)C(=O)NCc3ccc(N)nc3C)C2)c1 [compound 1257, (2R,4S)—N—((S)-1-(((6-Amino-2-methylpyridin-3-yl)methyl)amino)-1-oxopropan-2-yl)-4-(m-tolyl)pyrrolidine-2-carboxamide Dihydrochloride]
H-bond distance to MASP-2 GLY 656 atom O (Table A1 (H-Bonds), GLY 656 O): 2.82
H-bond distance to MASP-2 SER 628 atom O (Table A1 (H-Bonds), SER 628 O): 3.12
H-bond distance to MASP-2 SER 654 atom O (Table A1 (H-Bonds), SER 654 O): 3.02
H-bond distance to MASP-2 SER 657 atom O (Table A1 (H-Bonds), SER 657 O): 2.86
van der Waals contact distance, MASP-2 HIS 483 atom CD2 (Table A2-1): 3.7
van der Waals contact distance, MASP-2 HIS 483 atom NE2 (Table A2-1): 3.72
van der Waals contact distance, MASP-2 PHE 529 atom CD1 (Table A2-3): 3.89
van der Waals contact distance, MASP-2 PRO 606 atom O (Table A2-4): 3.38
van der Waals contact distance, MASP-2 amino acid atom to compound atom (Table A2-5: TYR 607 (CE1, CE2, OH), PRO 608 (CD, CG), SER 611 (CA)): 3.8
van der Waals contact distance, MASP-2 amino acid atom to compound atom (Table A2-9, ARG 630, AA atoms CG, CZ): 3.53
van der Waals contact distance, VAL 653 CG1 to compound atom (Table A2-11): 3.36
van der Waals contact distance, SER 654 O to compound atom (Table A2-12): 3.73
van der Waals contact distance, TRP 655 CA to compound atom (Table A2-12): 3.57
van der Waals contact distance TRP 655 atom CE3 (Table A2-13, MASP-2 TRP 655 CE3, compound atom in line below): 3.87
van der Waals contact distance TRP 655 atom CZ3 (Table A2-13, MASP-2 TRP 655 CZ3): 3.77
van der Waals contact distance, MASP-2 amino acid atom to compound atom (Table A2 section before Table A2-8): 3.86
Ligand-pharmacophore element distance, pharmacophore element C2: 0
Ligand-pharmacophore element distance, pharmacophore element C3: 0.1
Ligand-pharmacophore element distance, pharmacophore element C4: 0
Ligand-pharmacophore element distance, pharmacophore element C5: 0
Ligand-pharmacophore element distance, pharmacophore element C6: 0.53
Ligand-pharmacophore element distance, pharmacophore element C7: 0
Ligand-pharmacophore element distance, pharmacophore element CA1: 0.65
Ligand-pharmacophore element distance, pharmacophore element CA2: 0
Ligand-pharmacophore element distance, pharmacophore element CA3: 0
Ligand-pharmacophore element distance, pharmacophore element CA4: 0
Ligand-pharmacophore element distance, pharmacophore element CA5: 1.2
Ligand-pharmacophore element distance, pharmacophore element CA6: 0
d(C3,CA1) [1]: 2.87
d(CA1,N1)2 [1]: 1.35
d(CA1,O1) [1]: 4.45
d(CA1,O2) [1]: 4.03
d(H4,O1) [1]: 4.43
d(H4,O2) [1]: 3.84
d(O1,O2) [1]: 3.61
d(CA5,N2) [2]: 5.09
d(N2,C6) [2]: 6.64
d(O2,H3) [2]: 2.18
d(O2,N2) [2]: 2.71
a(C3, CA1, O1) (Table A6-1 pharmacophore angle): 150.46
a(CA1, O1, O2) (Table A6-1 pharmacophore angle): 109.00
a(O1, O2, H4) (Table A6-1 pharmacophore angle): 128.83
a(N1, CA1, O1) b) (Table A6-1 pharmacophore angle, Methyl-amino-pyridine compounds): 174.64
a(O1, O2, H3) (Table A6-2 pharmacophore angle): 132.63
a(O1, O2, N2) (Table A6-2 pharmacophore angle): 141.45
a(O2, N2, C6) (Table A6-2 pharmacophore angle): 105.30
Pharmacophore torsion angle a(C3, CA1, O1, H4) [3]: 30.77
Pharmacophore torsion angle a(H4, O1, O2, H3) [3]: 108.60
Pharmacophore torsion angle a(H4, O1, O2, N2) [3]: 132.94
Pharmacophore torsion angle a(N1, CA1, O1, H4) [3]: 11.94
Pharmacophore torsion angle a(O1, H4, O2, CA1) [3]: −83.51
Pharmacophore torsion angle a(O1, O2, N2, C6) [4]: 146.13
Pharmacophore torsion angle a(O1, O2, N2, CA5) [4]: 134.25

C[C@H](NC(=O)[C@H]1C[C@H](Cc2ccccc2)CN1)C(=O)NCc1ccc(C(=N)N)cc1.Cl.Cl [1306_1]
Ligand-pharmacophore element distance, pharmacophore element C2: 0
Ligand-pharmacophore element distance, pharmacophore element C3: 0
Ligand-pharmacophore element distance, pharmacophore element C4: 0
Ligand-pharmacophore element distance, pharmacophore element C5: 0
Ligand-pharmacophore element distance, pharmacophore element C6: 0
Ligand-pharmacophore element distance, pharmacophore element C7: 0
Ligand-pharmacophore element distance, pharmacophore element CA1: 0.05
Ligand-pharmacophore element distance, pharmacophore element CA2: 0.6
Ligand-pharmacophore element distance, pharmacophore element CA3: 0
Ligand-pharmacophore element distance, pharmacophore element CA4: 0
Ligand-pharmacophore element distance, pharmacophore element CA5: 0
Ligand-pharmacophore element distance, pharmacophore element CA6: 0
d(CA1,N1) [1]: 3.54
d(CA1,O1) [1]: 4.38
d(CA1,O2) [1]: 4.22
d(H4,O1) [1]: 4.25
d(H4,O2) [1]: 5.09
d(O1,O2) [1]: 3.06
d(N2,CA2) [2]: 6.06
d(O2,H3) [2]: 5.26
d(O2,N2) [2]: 2.66
a(CA1, O1, O2) (Table A6-1 pharmacophore angle): 107.94
a(O1, O2, H4) (Table A6-1 pharmacophore angle): 143.05
A(N1, CA1, O1) a) (Table A6-1 pharmacophore angle, all compounds with protonatable center N1 except Methyl-amino-pyridine): 158.44
a(O1, O2, H3) (Table A6-2 pharmacophore angle): 152.11
a(O1, O2, N2) (Table A6-2 pharmacophore angle): 135.46
a(O2, N2, CA2) (Table A6-2 pharmacophore angle): 155.89
Pharmacophore torsion angle a(H4, O1, O2, H3) [3]: 36.21
Pharmacophore torsion angle a(H4, O1, O2, N2) [3]: 120.80
Pharmacophore torsion angle a(N1, CA1, O2, H4) [3]: 106.51
Pharmacophore torsion angle a(O1, H4, O2, CA1) [3]: −170.32
Pharmacophore torsion angle a(O1, O2, N2, CA2) [4]: 136.58

C[C@H](NC(=O)[C@H]1C[C@@H](c2ccccc2)CCN1)C(=O)NCc1cc(Cl)ccc1O.Cl [1078_9]
Ligand-pharmacophore element distance, pharmacophore element C2: 0.67
Ligand-pharmacophore element distance, pharmacophore element C3: 0
Ligand-pharmacophore element distance, pharmacophore element C4: 0
Ligand-pharmacophore element distance, pharmacophore element C5: 0.46
Ligand-pharmacophore element distance, pharmacophore element C6: 0
Ligand-pharmacophore element distance, pharmacophore element C7: 0
Ligand-pharmacophore element distance, pharmacophore element CA1: 1.62
Ligand-pharmacophore element distance, pharmacophore element CA2: 0.56
Ligand-pharmacophore element distance, pharmacophore element CA3: 0
Ligand-pharmacophore element distance, pharmacophore element CA4: 0
Ligand-pharmacophore element distance, pharmacophore element CA5: 0
Ligand-pharmacophore element distance, pharmacophore element CA6: 0
d(CA1,C5) [1]: 3.11
d(CA1,O1) [1]: 4.31
d(CA1,O2) [1]: 4.77
d(CA1,O4) [1]: 2.74
d(H4,O1) [1]: 2.21
d(H4,O2) [1]: 2.49
d(O1,O2) [1]: 3.11
d(O4,H2) [1]: 0.98
d(N2,C2) [2]: 1.46
d(N2,CA2) [2]: 5.71
d(O2,H3) [2]: 3.06
d(O2,N2) [2]: 2.89
a(C5, CA1, O1) (Table A6-1 pharmacophore angle): 161.68
a(CA1, O1, O2) (Table A6-1 pharmacophore angle): 117.85
a(CA1, O4, H2) (Table A6-1 pharmacophore angle): 128.05
a(O1, CA1, O4) (Table A6-1 pharmacophore angle): 66.67
a(O1, O2, H4) (Table A6-1 pharmacophore angle): 97.24
a(O1, O2, H3) (Table A6-2 pharmacophore angle): 142.04
a(O1, O2, N2) (Table A6-2 pharmacophore angle): 146.14
a(O2, N2, C2) (Table A6-2 pharmacophore angle): 119.45
a(O2, N2, CA2) (Table A6-2 pharmacophore angle): 153.36
Pharmacophore torsion angle a(C5, CA1, O1, H4) [3]: 14.92
Pharmacophore torsion angle a(H4, O1, O2, H3) [3]: −116.62
Pharmacophore torsion angle a(H4, O1, O2, N2) [3]: −110.81
Pharmacophore torsion angle a(O1, H4, O2, CA1) [3]: −50.72
Pharmacophore torsion angle a(O1, O2, N2, C2) [3]: 144.64
Pharmacophore torsion angle a(O1, O2, N2, CA2) [4]: 146.06

C[C@H](NC(=O)[C@H](N)C1Cc2ccccc2C1)C(=O)NCc1ccc2c(N)nccc2c1.Cl.Cl [1088_B]
Ligand-pharmacophore element distance, pharmacophore element C2: 1.93
Ligand-pharmacophore element distance, pharmacophore element C3: 0
Ligand-pharmacophore element distance, pharmacophore element C4: 0
Ligand-pharmacophore element distance, pharmacophore element C5: 0
Ligand-pharmacophore element distance, pharmacophore element C6: 0
Ligand-pharmacophore element distance, pharmacophore element C7: 0
Ligand-pharmacophore element distance, pharmacophore element CA1: 0.62
Ligand-pharmacophore element distance, pharmacophore element CA2: 0.2
Ligand-pharmacophore element distance, pharmacophore element CA3: 0
Ligand-pharmacophore element distance, pharmacophore element CA4: 0
Ligand-pharmacophore element distance, pharmacophore element CA5: 0
Ligand-pharmacophore element distance, pharmacophore element CA6: 0
d(CA1,O1) [1]: 5.22
d(CA1,O2) [1]: 4.78
d(H4,O1) [1]: 6.73
d(H4,O2) [1]: 6.06
d(O1,O2) [1]: 3.02
d(N2,C2) [2]: 3.90
d(N2,CA2) [2]: 6.13
d(O2,H3) [2]: 3.82
d(O2,N2) [2]: 2.68
a(CA1, O1, O2) (Table A6-1 pharmacophore angle): 99.27
a(O1, O2, H4) (Table A6-1 pharmacophore angle): 153.40
a(O1, O2, H3) (Table A6-2 pharmacophore angle): 144.52
a(O1, O2, N2) (Table A6-2 pharmacophore angle): 135.22
a(O2, N2, C2) (Table A6-2 pharmacophore angle): 140.65
a(O2, N2, CA2) (Table A6-2 pharmacophore angle): 154.54
Pharmacophore torsion angle a(H4, O1, O2, H3) [3]: 45.99
Pharmacophore torsion angle a(H4, O1, O2, N2) [3]: 121.15
Pharmacophore torsion angle a(O1, H4, O2, CA1) [3]: −63.34
Pharmacophore torsion angle a(O1, O2, N2, C2) [3]: 129.99
Pharmacophore torsion angle a(O1, O2, N2, CA2) [4]: 134.51
Pharmacophore protein distance to MET_658 (first MET_658 column) (Table A8-6, 6th residue column, nearest protein atom in cell to the left): 3.04
Pharmacophore protein distance to MET_658 (second MET_658 column) (Table A8-6, 9th residue column, nearest protein atom in cell to the left): 3.12
Pharmacophore protein distance to GLY_528 [5]: 3.66
Pharmacophore protein distance to PHE_529 [5]: 2.75
Pharmacophore protein distance to PRO_608 [5]: 3.74
Pharmacophore protein distance to SER_611 [5]: 2.71
Pharmacophore protein distance to TRP_655 (Table A8-6, pharmacophore elements C6, CA3, O3, H1, nearest protein atom in cell to the left): 3.75
